Data: US9024043B2, “Pimarane diterpenes from Anisochilus verticillatus” (Council of Scientific & Industrial Research, priority 2011, dated 2015)
In brackets after ≈: the same amount, converted by molar mass. Entries after “also recorded” stand apart in the source; their conditions may differ.

Key:
[1] = tested on: Mycobacterium tuberculosis H37Ra; assay: Anti-mycobacterial activity (XTT-menadione assay); assay type: cell-based; conditions: for inhibition at 100 µg/mL: read-out: % inhibition at 100 μg/ml against M. tuberculosis (footnote c); for antimycobacterial activity against M. tuberculosis (in words): in vitro; for IC90: concentration exhibiting 90% inhibition against growth, H37Ra, 8th day of incubation, read-out: IC90 value determined against M. tuberculosis
Protocol: All the isolated compounds and whole acetone extract were tested for their in vitro effect against Mycobacterium tuberculosis H37Ra culture maintained in-house.
M. tuberculosis, H37Ra (ATCC 25177) cells were grown to logarithmic phase (O.D.595˜1.0) in a defined medium (M. pheli medium) under aerobic conditions in a shaker incubator (Thermo Electron Corporation Model 481) maintained at 150 rpm and 37° C. After growth, the culture was sonicated for 2 min using a water bath sonicator. Sonicated cells were used for inoculation in micro plate wells. 250 μl of the culture containing ˜10 5 cells/ml was added to each well of 96 well plates. 2.5 μl of the test samples dissolved in DMSO was added to the wells to attain a final concentration of 100 ug/ml respectively for the preliminary screening. Dose response curve of the active compounds was carried out by making serial dilutions of the test samples. Then, the plate was incubated in a CO2 incubator at 37° C. The plate was taken out on the 8th day of incubation to measure the viable cell counts. The optical density of the culture was measured before addition of XTT at 470 nm which was served as a blank for the MIC calculations. 200 μM XTT was added and incubated for 20 min at 37° C. after shaking for 1 min. After 20 min of incubation, 60 μM menadione was added and incubated at 37° C. for 40 min after mixing of 1 min. Finally, the optical density of the suspension was measured at 470 nm by using microplate reader.

[2] = tested on: THP-1 (Human acute leukemia cells) cell lines; assay: Cytotoxicity studies (MTT assay); assay type: cell-based; conditions: for inhibition at 100 µg/mL: Homo sapiens, THP-1, 100 μg/ml, 72 h, MTT, read-out: % Inhibition on Thp-1 cell line at 100 μg/ml
Protocol: Compounds 3 was tested at IC90 values and also at higher concentration, 100 μg/ml, for their in vitro cytotoxicity against THP-1 (Human acute leukemia cells) cell lines procured from National Cell Repository, India.
About 10,000 cells were taken per well in 96-well tissue culture plates and treated with compound 3 at IC90 values and also at higher concentration, 100 μg/ml for 72 h. Vehicle control (DMSO, 1%) and positive control (Paclitaxel, 100 μg/ml) were run simultaneously. Cell proliferation was assessed with 10 μl from 5 mg/ml stock solution of tetrazolium salt (MTT) dissolved in cell culture medium and subsequently incubated for additional 1 h at 37° C., 5% of CO2 and 95% humidity in incubator. The violet coloured formazan crystals formed were solubilized in 200 μl of isopropanol and incubated for another 4 h. The optical density was read on a micro plate reader (Spectramax plus384 plate reader, Molecular Devices Inc) at 490 nm filter against a blank prepared from cell-free wells. Absorbance given by cells treated with the carrier DMSO alone was taken as 100% cell growth. All experiments were performed in triplicate, and the quantitative value was expressed as the average±standard deviation.

[3] = Mycobacterium tuberculosis, H37RA

| SMILES | inhibition at 100 µg/mL [1, 3] [%] | antimycobacterial activity against M. tuberculosis (in words) [1] | inhibition at 100 µg/mL [2] [%] | IC90 ([1]; Mycobacterium tuberculosis) [µg/mL] | further results |
| --- | --- | --- | --- | --- | --- |
| C=C[C@@]1(C)CC[C@@]2(O)[C@]3(CC[C@@]4(OO3)C(C)(C)CCC[C@]24C)C1 [Compound 1, pimarane-5,8-peroxide] | 42.9 | effective | – | – | – |
| C=C[C@@]1(C)CC[C@@]2(O)[C@@](O)(C[C@@H](O)[C@@]3(O)C(C)(C)CCC[C@]23C)C1 [Compound 3, pimarane-tetrol] | 35 | effective | 57.2 | – | anti-cancer activity against THP-1 cell lines (in words) ([2]; in vitro): showed anti-cancer activity; also recorded: comparable to that of known standard drug, paclitaxel |
| C=CCc1ccc(O)c(O)c1 [Compound 4, Hydroxychavicol] | – | effective | – | – | IC50 ([1]; Mycobacterium tuberculosis, H37RA, read-out: IC50 against growth of M. tuberculosis (footnote d)): 12.5 µg/mL (≈ 83.2 µM) |
| NNC(=O)c1ccncc1 [Isoniazid, reference compound] | – | – | – | 0.05 ± 0.003 (≈ 0.365 µM) | – |
| CC(=O)O[C@H]1C(=O)[C@@]2(C)[C@H]([C@H](OC(=O)c3ccccc3)[C@]3(O)C[C@H](OC(=O)[C@H](O)[C@@H](NC(=O)c4ccccc4)c4ccccc4)C(C)=C1C3(C)C)[C@]1(OC(C)=O)CO[C@@H]1C[C@@H]2O [Paclitaxel, reference compound] | – | – | 61 | – | – |
| C=C[C@@]1(C)CC[C@H]2[C@@](O)(C[C@@H](O)[C@@]3(O)C(C)(C)CCC[C@]23C)C1 [Compound 2, pimarane-triol] | – | effective | – | 20 (≈ 62 µM) | – |
